Experimental findings from US20260137706A1, “METHODS OF TREATING INFLAMMATORY DISEASES” (INTERLINE THERAPEUTICS, INC., priority 2023, published 2026) are described below.

Read-outs that look alike come from different tables or passages of the source.

Assay [1] concerns the target T1, binding of His-XIAP(BIR2)-avi fusion protein to GST-RIPK2 fusion protein (RIPK2/XIAP) (Homo sapiens, UniProt O43353).
T1 construct: made in house; host or cells: baculovirus infected Sf9 cells
Put plainly: RIPK2-XIAP binding competition PPI assay (TR-FRET). The settings on record: RIPK2/XIAP binding competition PPI assay; for Emax: Amax, read-out: PPI Amax bin. The method in brief: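 Compounds (in DMSO, 100-fold stock) incubated 120 min at 23 °C with 1 nM GST-RIPK2 (aa 1-310) and 25 nM His-XIAP(BIR2 aa 152-231)-avi, plus anti-His-XL665 and anti-GST-Tb, in pH 7.5 Tris buffer. Read-out: 665/520 nm emission ratio. Normalized to no-inhibitor (0%) and 50 nM GSK583 (−100%); Amax binned A–D.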
(In general: Time-resolved FRET reads energy transfer from a long-lived donor to a nearby acceptor.)

Assay [2] relates to NF-κB pathway (SEAP) in THP1-Dual cells. Put plainly: THP-1 Dual cell SEAP assay (L18-MDP stimulated). Type of assay: cell-based. The settings on record: Homo sapiens, THP1-Dual, read-out: NF-κB THP1 IC50 bin. The method in brief:
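THP1-Dual cells (~25,000/well) were preincubated 30 min with serially diluted compounds, then stimulated with 10 ng/mL L18-MDP (final) for 20-24 h at 37 °C. Supernatant SEAP was read with QUANTI-Blue at OD 620-655 nm after 2 h. IC50 came from non-linear fits of % inhibition versus DMSO/L18-MDP controls after media-blank subtraction.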

For assay [3], the target named is T2, GST-RIPK2 fusion protein (human RIPK2, amino acids 1-310) (Homo sapiens, UniProt O43353).
T2 construct: made in house; host or cells: baculovirus infected Sf9 cells
T2 sequence (O43353 1-310): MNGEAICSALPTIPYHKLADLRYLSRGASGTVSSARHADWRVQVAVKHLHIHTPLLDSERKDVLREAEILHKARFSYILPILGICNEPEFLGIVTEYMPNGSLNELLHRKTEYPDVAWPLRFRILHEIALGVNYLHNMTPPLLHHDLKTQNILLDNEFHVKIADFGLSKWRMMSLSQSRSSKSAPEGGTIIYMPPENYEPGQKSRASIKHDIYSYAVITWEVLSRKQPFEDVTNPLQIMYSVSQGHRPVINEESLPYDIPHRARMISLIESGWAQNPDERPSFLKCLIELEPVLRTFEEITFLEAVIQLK
The experiment in a line: RIPK2 binding competition assay (TR-FRET, Tracer 199 displacement). The method in brief: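 GST-RIPK2 (human aa 1-310, Sf9-expressed; final 1 nM) with Tracer 199 (final 10 nM) and Tb-anti-GST (final 0.5 nM) in Tris pH 7.5 buffer, 45 min at 22 °C. TR-FRET 665/620 nm ratio after 337 nm excitation; normalized to no-inhibitor (0%) and no-protein (−100%), giving IC50.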

Setting [4] is: 10 nM Tracer 199, 1 nM GST-RIPK2, read-out: RIPK2 IC50.

T1 sequence (O43353 1-310 limits assumed): as the sequence (O43353 1-310) above

As a reminder, the IC50 is the point on the concentration scale where inhibition reaches its midpoint. For `C[C@H](O)COc1cc2ncc(-c3cc(F)c(N)nc3F)n2cc1S(=O)(=O)C(C)(C)C` [Example 170, (S)-1-((3-(6-amino-2,5-difluoropyridin-3-yl)-6-(tert-butylsulfonyl)imidazo[1,2-a]pyridin-7-yl)oxy)propan-2-ol], in assay [1], the Emax is > 80%. The concentration for half-maximal inhibition (IC50) lay in the range of 1 to 2.5 nM in assay [1] (read-out: PPI IC50 bin), 50 to 250 nM in assay [2] and 1 to 2.5 nM in assay [3] (setting [4]).

For the compound `CC(C)(C)S(=O)(=O)c1cn2c(-c3cnc4[nH]nnc4c3)cnc2cc1OCCO` [Example 231, 2-((3-(3H-[1,2,3]triazolo[4,5-b]pyridin-6-yl)-6-(tert-butylsulfonyl)imidazo [1,2-a]pyridin-7-yl)oxy)ethan-1-ol], in assay [1], the Emax was 30 to 55%. For the same compound, the IC50 was > 20 nM in assay [1] (read-out: PPI IC50 bin), > 1000 nM in assay [2] and > 20 nM in assay [3] (setting [4]).

For `CC(C)(C)S(=O)(=O)c1cn2c(-c3cc(F)c(N)nc3F)cnc2cc1-c1cn[nH]c1` [Example 31, 5-(6-(tert-butylsulfonyl)-7-(1H-pyrazol-4-yl)imidazo[1,2-a]pyridin-3-yl)-3,6-difluoropyridin-2-amine], the Emax in assay [1] was > 80%. Moreover, the IC50 in assay [1] (read-out: PPI IC50 bin) is 2.5 to 20 nM; in assay [2] it was > 1000 nM; in assay [3] (setting [4]) it was 2.5 to 20 nM.

On to `COc1cc2ncc(-c3cnc4c(c3)NCCO4)n2cc1S(=O)(=O)C(C)(C)C` [Example 82, 7-(6-(tert-butylsulfonyl)-7-methoxyimidazo[1,2-a]pyridin-3-yl)-2,3-dihydro-1H-pyrido[2,3-b][1,4]oxazine], for which the Emax in assay [1] was < 30%. The results for the IC50 in assay [1] (read-out: PPI IC50 bin), in assay [2] and in assay [3] (setting [4]) were > 20 nM, > 1000 nM and > 20 nM, respectively.

On to `C[C@H](CO)Oc1cc2ncc(-c3cc(F)c(N)nc3F)n2cc1S(=O)(=O)C(C)(C)C` [Example 172, (R)-2-((3-(6-amino-2,5-difluoropyridin-3-yl)-6-(tert-butylsulfonyl)imidazo[1,2-a]pyridin-7-yl)oxy)propan-1-ol], for which the IC50 in assay [1] (PPI IC50 bin) lay in the range of 2.5 to 20 nM; in assay [2], 250 to 1000 nM; in assay [3] (RIPK2 IC50 (nM), 10 nM Tracer 199, 1 nM GST-RIPK2), 2.5 to 20 nM. In addition, the Emax in assay [1] is > 80%.

As for `COc1cc2ncc(-c3ccc4cnn(C)c4c3)n2cc1S(=O)(=O)C(C)(C)C` [Example 106, 6-(6-(tert-butylsulfonyl)-7-methoxyimidazo[1,2-a]pyridin-3-yl)-1-methyl-1H-indazole], the Emax in assay [1] was < 30%. Further, the results for the concentration for half-maximal inhibition (IC50) in assay [1] (read-out: PPI IC50 bin), in assay [2] and in assay [3] (setting [4]) were > 20 nM, > 1000 nM and > 20 nM, respectively.

As to `[2H]C([2H])([2H])Oc1c(F)cc(-c2cnc3cc(OC)c(S(=O)(=O)C(C)(C)C)cn23)cc1NS(=O)(=O)CC1COC1` [Example 133, N-(5-(6-(tert-butylsulfonyl)-7-methoxyimidazo[1,2-a]pyridin-3-yl)-3-fluoro-2-(methoxy-d3)phenyl)-1-(oxetan-3-yl)methanesulfonamide], the Emax in assay [1] lay in the range of 55 to 80%. Moreover, the IC50 in assay [1] (read-out: PPI IC50 bin) was < 1 nM; in assay [2] it was < 50 nM; in assay [3] (setting [4]), < 1 nM.

Regarding `COc1cc2ncc(-c3cc(F)c(N)nc3F)n2cc1S(=O)(=O)C(C)(C)CCCO` [Example 63, 4-((3-(6-amino-2,5-difluoropyridin-3-yl)-7-methoxyimidazo[1,2-a]pyridin-6-yl)sulfonyl)-4-methylpentan-1-ol], the Emax in assay [1] is > 80%. Further, the results for the 50% inhibitory concentration (IC50) in assay [1] (read-out: PPI IC50 bin), in assay [2] and in assay [3] (setting [4]) were 2.5 to 20 nM, > 1000 nM and 2.5 to 20 nM, respectively.

Consider `CCCS(=O)(=O)Nc1cc(-c2cnc3cc(OC)c(C4(O)CCOCC4)cn23)cc(F)c1OC` [Example 127, N-(3-fluoro-5-(6-(4-hydroxytetrahydro-2H-pyran-4-yl)-7-methoxyimidazo[1,2-a]pyridin-3-yl)-2-methoxyphenyl)propane-1-sulfonamide], for which the Emax in assay [1] was > 80%. The values for the 50% inhibitory concentration (IC50) in assay [1] (read-out: PPI IC50 bin), in assay [2] and in assay [3] (setting [4]) were 1 to 2.5 nM, 50 to 250 nM and 1 to 2.5 nM, respectively.

In the case of `COc1cc2ncc(-c3cc(F)c(OC)c(NS(=O)(=O)CC4COC4)c3)n2cc1S(=O)(=O)C(C)(C)C` [Example 160, N-(5-(6-(tert-butylsulfonyl)-7-methoxyimidazo[1,2-a]pyridin-3-yl)-3-fluoro-2-methoxyphenyl)-1-(oxetan-3-yl)methanesulfonamide], the Emax in assay [1] was > 80%. Moreover, the half-maximal inhibitory concentration (IC50) in assay [1] (read-out: PPI IC50 bin) was < 1 nM; in assay [2], < 50 nM; in assay [3] (setting [4]), < 1 nM.

With `CCS(=O)(=O)Nc1cc(-c2cnc3cc(OC[C@@H](C)O)c(S(=O)(=O)C(C)(C)C)cn23)cc(F)c1OC` [Example 252, (R)-N-(5-(6-(tert-butylsulfonyl)-7-(2-hydroxypropoxy)imidazo[1,2-a]pyridin-3-yl)-3-fluoro-2-methoxyphenyl) ethanesulfonamide], the Emax in assay [1] was > 80%. Also, the IC50 in assay [1] (read-out: PPI IC50 bin) is < 1 nM; in assay [2], < 50 nM; in assay [3] (setting [4]), < 1 nM.

In the case of `CCCS(=O)(=O)Nc1cc(-c2cnn3cc(OC)c(S(=O)(=O)C(C)(C)CO)cc23)cc(F)c1OC` [Example 132], in assay [1], the Emax is > 80%. In addition, the figures for the IC50 in assay [1] (read-out: PPI IC50 bin), in assay [2] and in assay [3] (setting [4]) were < 1 nM, < 50 nM and < 1 nM, respectively.

On to `C[C@H](O)COc1cn2ncc(-c3cc(F)c(N)nc3F)c2cc1S(=O)(=O)C(C)(C)C` [Example 45, (S)-1-((3-(6-amino-2,5-difluoropyridin-3-yl)-5-(tert-butylsulfonyl)pyrazolo[1,5-a]pyridin-6-yl)oxy)propan-2-ol], for which the Emax in assay [1] was > 80%. In addition, the IC50 in assay [1] (read-out: PPI IC50 bin) fell in the range of 1 to 2.5 nM; in assay [2], 50 to 250 nM; in assay [3] (setting [4]), 1 to 2.5 nM.

Turning to `COc1cc2ncc(-c3cc(F)c(N)nc3F)n2cc1S(=O)(=O)C(C)(C)Cn1cccn1` [Example 65, 3,6-difluoro-5-(7-methoxy-6-((2-methyl-1-(1H-pyrazol-1-yl)propan-2-yl)sulfonyl)imidazo[1,2-a]pyridin-3-yl)pyridin-2-amine], in assay [1], the Emax is > 80%. Besides, the results for the 50% inhibitory concentration (IC50) in assay [1] (read-out: PPI IC50 bin), in assay [2] and in assay [3] (setting [4]) were > 20 nM, > 1000 nM and > 20 nM, respectively.

For the compound `CC(C)(C)S(=O)(=O)c1cn2c(-c3cnc4c(c3)C3(CC3)CN4)cnc2cc1OCCO` [Example 237, 2-((6-(tert-butylsulfonyl)-3-(1′,2′-dihydrospiro [cyclopropane-1,3′-pyrrolo[2,3-b]pyridin] -5′-yl)imidazo[1,2-a]pyridin-7-yl)oxy)ethan-1-ol], the Emax in assay [1] was < 30%. The concentration for half-maximal inhibition (IC50) was > 20 nM in assay [1] (read-out: PPI IC50 bin), > 1000 nM in assay [2] and > 20 nM in assay [3] (setting [4]).

In the case of `CC(C)(C)S(=O)(=O)c1cn2c(-c3cc4cc[nH]c4cc3F)cnc2cc1OCCO` [Example 217, 2-((6-(tert-butylsulfonyl)-3-(6-fluoro-1H-indol-5-yl)imidazo[1,2-a]pyridin-7-yl)oxy)ethan-1-ol], in assay [1], the Emax lay within 55 to 80%. In addition, the concentration for half-maximal inhibition (IC50) in assay [1] (read-out: PPI IC50 bin) is < 1 nM; in assay [2], 50 to 250 nM; in assay [3] (setting [4]) it was < 1 nM.

As to `CC1(C)CNc2ncc(-c3cnc4cc(OCCO)c(S(=O)(=O)C(C)(C)C)cn34)cc21` [Example 230, 2-((6-(tert-butylsulfonyl)-3-(3,3-dimethyl-2,3-dihydro-1H-pyrrolo[2,3-b]pyridin-5-yl)imidazo[1,2-a]pyridin-7-yl)oxy)ethan-1-ol], the Emax in assay [1] was < 30%. For the same compound, the values for the IC50 in assay [1] (read-out: PPI IC50 bin), in assay [2] and in assay [3] (setting [4]) were > 20 nM, > 1000 nM and > 20 nM, respectively.

As for `COc1ccn2ncc(-c3cc(N)cc(F)c3)c2n1` [Example 80, 3-fluoro-5-(5-methoxypyrazolo[1,5-a]pyrimidin-3-yl)aniline], the Emax in assay [1] is < 30%. The IC50 in assay [1] (read-out: PPI IC50 bin) is > 20 nM; in assay [2], > 1000 nM; in assay [3] (setting [4]) it was > 20 nM.

Regarding `COc1cc2ncc(-c3cnc4nc(N)ccc4c3)n2cc1S(=O)(=O)C(C)(C)C` [Example 91, 6-(6-(tert-butylsulfonyl)-7-methoxyimidazo[1,2-a]pyridin-3-yl)-1,8-naphthyridin-2-amine], the Emax in assay [1] lay in the range of 30 to 55%. Also, the IC50 in assay [1] (read-out: PPI IC50 bin) is > 20 nM; in assay [2], > 1000 nM; in assay [3] (setting [4]), > 20 nM.

With `CC(C)(C)S(=O)(=O)c1cc2c(-c3cc(Cl)c(N)nc3F)cnn2cc1OCCOP(=O)(O)O` [Example 187, 2-((3-(6-amino-5-chloro-2-fluoropyridin-3-yl)-5-(tert-butylsulfonyl)pyrazolo[1,5-a]pyridin-6-yl)oxy)ethyl dihydrogen phosphate], the Emax in assay [1] is > 80%. Besides, the IC50 lay within 2.5 to 20 nM in assay [1] (read-out: PPI IC50 bin), 250 to 1000 nM in assay [2] and 2.5 to 20 nM in assay [3] (setting [4]).
